The values that follow come from US4956171A, “Transdermal drug delivery using a dual permeation enhancer and method of performing the same” (Paco Pharmaceutical Services, Inc., priority 1989, dated 1990).

Molecules are shown by their SMILES. Structures can show the parent of a compound that is named as a salt. Where two headings read alike, the source gives them in different places.

Data set [1] in a line: In vitro flux of drug from saturated test solutions through human cadaver skin into an infinite sink, Franz diffusion cell. It is filed as in vitro ADME. Here is the method: For the evaluation of the degree of permeation enhancement, saturated test solutions of buprenorphine HCl in methyl laurate and/or sucrose cocoate were directly applied onto the epidermis side of human cadaver skin loaded between donor and receptor compartments of a standard Franz diffusion cell. The cell was kept at 35° C. during the diffusion study. […] The sucrose cocoate used for the test is commercially available in a 48 wt. % aqueous solution under the trade name Crodesta® SL-40, through Croda, Inc.

The conditions of data set [2]: optimized delivery system, constant rate over extended time periods.
The conditions of data set [3]: relative to morphine; background statement; cited from earlier work.
For data set [4] the following is noted: cited from earlier work.
The conditions of data set [5]: on over dosage; cited from earlier work.
A short description of data set [6]: In vitro release rate from the reservoir-type system into an infinite sink. As to conditions: Example 1 reservoir-type system.
[7] abbreviates: Table 4, saturated in 48 wt. % sucrose cocoate aqueous solution.
The mark [8] stands for this setting: Table 4, saturated in 100 wt. % methyl laurate.
The mark [9] stands for this setting: Table 4, saturated in methyl laurate : 48 wt. % sucrose cocoate aqueous solution 3:7.
Setting [10] is: Example 1 reservoir-type system, 35° C.

Regarding `O=C(O)Cc1ccccc1Nc1c(Cl)cccc1Cl` [Dichlofenac Sodium], in data set [1], the “Flux, Solution A” value worked out at 14 μg/cm^2 /day; the “Flux, Solution A:B(3:7)” value is listed as 215 μg/cm^2 /day; the “Flux, Solution B” value turned out to be 146 μg/cm^2 /day.

Regarding `C[C@]12CC[C@@H]3c4ccc(O)cc4CC[C@H]3[C@@H]1CC[C@@H]2O` [Estradiol], in data set [1] (setting [7]), the “Flux, Solution B” value stood at 7.4 μg/cm^2 /day. Besides, the “Flux, Solution A” value in data set [1] (setting [8]) is recorded as 4.3 μg/cm^2 /day.

As to `CC(C)Cc1ccc(C(C)C(=O)O)cc1` (stereo not drawn) [Ibuprofen], the “Flux, Solution B” value in data set [1] (setting [7]) turned out to be 547 μg/cm^2 /day. Besides, the “Flux, Solution A” value in data set [1] (setting [8]) is 586 μg/cm^2 /day. Also, the “Flux, Solution A:B(3:7)” value in data set [1] (setting [9]) is 1897 μg/cm^2 /day.

Take `COC(=O)C1=C(C)NC(C)=C(C(=O)OC)C1c1ccccc1[N+](=O)[O-]` [Nifedipine]: the “Flux, Solution B” value in data set [1] (setting [7]) was 14 μg/cm^2 /day. Further, the “Flux, Solution A” value in data set [1] (setting [8]) amounted to 15 μg/cm^2 /day. In data set [1] (setting [9]), the “Flux, Solution A:B(3:7)” value stood at 23 μg/cm^2 /day.

Regarding `C[C@]12C=CC(=O)C=C1CC[C@@H]1[C@@H]2[C@@H](O)C[C@@]2(C)[C@H]1CC[C@]2(O)C(=O)CO` [Prednisolone], in data set [1] (setting [7]), the “Flux, Solution B” value is reported as 8 μg/cm^2 /day. Further, the “Flux, Solution A” value in data set [1] (setting [8]) came to 51 μg/cm^2 /day. In addition, the “Flux, Solution A:B(3:7)” value in data set [1] (setting [9]) turned out to be 188 μg/cm^2 /day.

For the compound `CO[C@]12CC[C@@]3(C[C@@H]1[C@](C)(O)C(C)(C)C)[C@H]1Cc4ccc(O)c5c4[C@@]3(CCN1CC1CC1)[C@H]2O5` [buprenorphine HCl], the “skin flux, Solution B” value in data set [1] (Table 3, saturated in 48 wt. % sucrose cocoate aqueous solution, 35° C.) was found to be 100 μg/cm^2 /day. Moreover, the “skin flux, Solution A” value in data set [1] (Table 3, saturated in 100 wt. % methyl laurate, 35° C.) came out at 8 μg/cm^2 /day. For the same compound, in data set [1] (Table 3, saturated in methyl laurate : 48 wt. % sucrose cocoate aqueous solution 1:9, 35° C.), the “skin flux, Solution A:B(1:9)” value is 226 μg/cm^2 /day. Besides, the amount delivered (Example 1 reservoir-type system, during the 72 hour period) is listed as 360 μg/cm^2. In addition, the “loaded amount transdermally delivered” value (Example 1 reservoir-type system, over 72 hours, initial load about 1800 μg/cm^2) is recorded as “about 20 wt. %”.

Take `CO[C@]12CC[C@@]3(C[C@@H]1[C@](C)(O)C(C)(C)C)[C@H]1Cc4ccc(O)c5c4[C@@]3(CCN1CC1CC1)[C@H]2O5` [buprenorphine]: the “steady state buprenorphine flux” value (Example 1 reservoir-type system, 3 wt. % buprenorphine HCl, 35° C.) was “about 5 μg/cm^2 /hr”. Moreover, under setting [10], the “period over which flux stayed at a constant rate” value came to 72 h and the “time to steady state flux” value is “an hour”. Besides, for the setting “Example 3 laminated matrix-type system”, the “period over which steady state flux remained substantially constant” value was found to be 72 h. The “steady state buprenorphine flux” value (Example 3 laminated matrix-type system, 5.5 wt. % buprenorphine HCl) is listed as “about 3.5 μg/cm^2 /hr”. For the same compound, the “in vitro human cadaver skin delivery rate” value (dual permeation enhancer sucrose cocoate + methyl laurate, full range) is recorded as 1-10 μg/cm^2 /hr. For the same compound, the “in vitro human cadaver skin delivery rate, preferable range” value (dual permeation enhancer sucrose cocoate + methyl laurate, preferably) was 2-6 μg/cm^2 /hr. Further, the skin irritation result in data set [2] is reported as “without uncomfortable skin irritation”. Moreover, the “analgesic activity, times more potent than morphine” value in data set [3] is about 30 times. In addition, the “liver and intestinal metabolism” value in data set [4] (background statement) is “extensive liver and intestinal metabolism”. Besides, the bioavailability result in data set [4] (due to extensive liver and intestinal metabolism) is listed as “poor bioavailability”. Besides, the side effects result in data set [5] is listed as “severe side effects, particularly respiratory depression”. Besides, the “release through the microporous membrane” value in data set [6] (infinite sink) was “rapid release”. In addition, the “loaded amount depleted by release into an infinite sink” value in data set [6] (within the first 12 hours) is on record as “more than 70 wt. %”.
